According to ChEMBL document CHEMBL1154380, “Lipocarbazoles, secondary metabolites from Tsukamurella pseudospumae Acta 1857 with antioxidative activity” (J Nat Prod, 2009):
Active and inactive are the calls of the source. The rule behind the calls is not given here.

Tests used:
[1] = test system: Botrytis cinerea; assay: Antifungal activity against Botrytis cinerea Tu 157 at 1 mg/ml after 48 hrs by disk diffusion assay; assay type: functional, organism-based
[2] = test system: Staphylococcus aureus; assay: Antibacterial activity against Staphylococcus aureus DSM 20231 at 1 mg/ml after 24 hrs by disk diffusion assay; assay type: functional, organism-based
[3] = test system: Brevibacillus brevis; assay: Antibacterial activity against Brevibacillus brevis DSM 30 at 1 mg/ml after 24 hrs by disk diffusion assay; assay type: functional, organism-based
[4] = test system: Escherichia coli; assay: Antibacterial activity against Escherichia coli K-12 at 1 mg/ml after 24 hrs by disk diffusion assay; assay type: functional, organism-based
[5] = test system: Pseudomonas fluorescens; assay: Antibacterial activity against Pseudomonas fluorescens DSM 50090 at 1 mg/ml after 24 hrs by disk diffusion assay; assay type: functional, organism-based
[6] = test system: Streptomyces viridochromogenes; assay: Antibacterial activity against Streptomyces viridochromogenes Tu 57 at 1 mg/ml after 24 hrs by disk diffusion assay; assay type: functional, organism-based
[7] = test system: Penicillium chrysogenum; assay: Antifungal activity against Penicillium notatum Tu 136 at 1 mg/ml after 48 hrs by disk diffusion assay; assay type: functional, organism-based
[8] = test system: Proteus mirabilis; assay: Antibacterial activity against Proteus mirabilis ATCC 35501 at 1 mg/ml after 24 hrs by disk diffusion assay; assay type: functional, organism-based
[9] = test system: Candida albicans; assay: Antifungal activity against Candida albicans Tu 164 at 1 mg/ml after 48 hrs by disk diffusion assay; assay type: functional, organism-based
[10] = test system: Paenarthrobacter aurescens; assay: Antibacterial activity against Arthrobacter aurescens DSM 20166 at 1 mg/ml after 24 hrs by disk diffusion assay; assay type: functional, organism-based
[11] = test system: Saccharomyces cerevisiae; assay: Antifungal activity against Saccharomyces cerevisiae ATCC 9080 at 1 mg/ml after 48 hrs by disk diffusion assay; assay type: functional, organism-based
[12] = test system: Bacillus subtilis; assay: Antibacterial activity against Bacillus subtilis DSM 10 at 1 mg/ml after 24 hrs by disk diffusion assay; assay type: functional, organism-based
[13] = test system: Radical scavenging activity; assay: Antioxidant activity assessed as DPPH radical scavenging activity after 30 mins; assay type: functional

IC50 [13] [µM] | SMILES | Activity [1] | Activity [2] | Activity [3] | Activity [4] | Activity [5] | Activity [6] | Activity [7] | Activity [8] | Activity [9] | Activity [10] | Activity [11] | Activity [12]
– | CC/C=C\C/C=C\C/C=C\CCCCCCCc1c(C)c(O)cc2c1[nH]c1ccccc12 | inactive | inactive | inactive | inactive | inactive | inactive | inactive | inactive | inactive | inactive | inactive | inactive
– | CCCCC/C=C\C/C=C\CCCCCCCc1c(C)c(O)cc2c1[nH]c1ccccc12 | inactive | inactive | inactive | inactive | inactive | inactive | inactive | inactive | inactive | inactive | inactive | inactive
10.5 | CCCCCCCCCCCCCCCCCc1c(C)c(O)cc2c1[nH]c1ccccc12 | inactive | inactive | inactive | inactive | inactive | inactive | inactive | inactive | inactive | inactive | inactive | inactive
4.4 | CCCOC(=O)c1cc(O)c(O)c(O)c1 [PROPYL GALLATE] | – | – | – | – | – | – | – | – | – | – | – | –
8.7 | CCCCCCCC/C=C\CCCCCCCc1c(C)c(O)cc2c1[nH]c1ccccc12 [LIPOCARBAZOLE A3] | inactive | inactive | inactive | inactive | inactive | inactive | inactive | inactive | inactive | inactive | inactive | inactive
13.4 | O=C1O[C@H]([C@@H](O)CO)C(O)=C1O [ASCORBIC ACID] | – | – | – | – | – | – | – | – | – | – | – | –
